# From ChEMBL document CHEMBL2074175, “Transport of cyclic nucleotides and estradiol 17-beta-D-glucuronide by multidrug resistance protein 4. Resistance to 6-mercaptopurine and 6-thioguanine” (J Biol Chem, 2001)
# T1: ATP-binding cassette sub-family C member 4 (Homo sapiens, UniProt O15439)
# T1 sequence (O15439 whole entry): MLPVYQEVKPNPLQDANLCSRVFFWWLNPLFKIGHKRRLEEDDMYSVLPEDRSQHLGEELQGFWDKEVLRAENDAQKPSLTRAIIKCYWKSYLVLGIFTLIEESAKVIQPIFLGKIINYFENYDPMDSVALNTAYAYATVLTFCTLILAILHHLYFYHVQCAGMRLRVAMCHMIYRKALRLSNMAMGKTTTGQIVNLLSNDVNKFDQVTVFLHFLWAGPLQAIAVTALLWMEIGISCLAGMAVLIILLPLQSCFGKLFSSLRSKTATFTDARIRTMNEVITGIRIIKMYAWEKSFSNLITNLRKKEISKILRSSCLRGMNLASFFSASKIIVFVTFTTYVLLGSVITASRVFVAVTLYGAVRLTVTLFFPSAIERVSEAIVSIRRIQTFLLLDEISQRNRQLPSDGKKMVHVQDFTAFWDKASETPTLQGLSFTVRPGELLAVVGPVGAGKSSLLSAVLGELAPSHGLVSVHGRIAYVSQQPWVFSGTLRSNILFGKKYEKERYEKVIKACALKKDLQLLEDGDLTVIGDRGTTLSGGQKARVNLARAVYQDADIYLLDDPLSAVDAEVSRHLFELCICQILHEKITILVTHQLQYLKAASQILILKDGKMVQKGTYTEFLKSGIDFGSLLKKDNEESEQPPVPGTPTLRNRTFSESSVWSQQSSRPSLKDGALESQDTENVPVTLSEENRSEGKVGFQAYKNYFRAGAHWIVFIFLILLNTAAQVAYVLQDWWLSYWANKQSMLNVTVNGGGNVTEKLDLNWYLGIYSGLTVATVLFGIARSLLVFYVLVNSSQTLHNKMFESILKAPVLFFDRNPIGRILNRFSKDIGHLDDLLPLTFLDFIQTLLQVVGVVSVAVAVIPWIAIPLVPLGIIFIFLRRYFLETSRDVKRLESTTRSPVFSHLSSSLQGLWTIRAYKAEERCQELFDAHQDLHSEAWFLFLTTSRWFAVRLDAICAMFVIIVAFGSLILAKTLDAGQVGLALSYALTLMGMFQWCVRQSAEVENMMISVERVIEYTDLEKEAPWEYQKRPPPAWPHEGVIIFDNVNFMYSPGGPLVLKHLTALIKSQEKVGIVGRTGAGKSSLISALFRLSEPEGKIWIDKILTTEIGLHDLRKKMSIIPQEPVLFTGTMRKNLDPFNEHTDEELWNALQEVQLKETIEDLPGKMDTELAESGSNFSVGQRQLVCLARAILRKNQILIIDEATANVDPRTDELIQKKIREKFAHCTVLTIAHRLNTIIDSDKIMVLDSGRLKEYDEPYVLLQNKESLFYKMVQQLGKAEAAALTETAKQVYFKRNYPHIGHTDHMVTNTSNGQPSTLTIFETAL
# T2: MRP4 (ABCC4) (Homo sapiens, UniProt O15439)
# T2 sequence (O15439 whole entry): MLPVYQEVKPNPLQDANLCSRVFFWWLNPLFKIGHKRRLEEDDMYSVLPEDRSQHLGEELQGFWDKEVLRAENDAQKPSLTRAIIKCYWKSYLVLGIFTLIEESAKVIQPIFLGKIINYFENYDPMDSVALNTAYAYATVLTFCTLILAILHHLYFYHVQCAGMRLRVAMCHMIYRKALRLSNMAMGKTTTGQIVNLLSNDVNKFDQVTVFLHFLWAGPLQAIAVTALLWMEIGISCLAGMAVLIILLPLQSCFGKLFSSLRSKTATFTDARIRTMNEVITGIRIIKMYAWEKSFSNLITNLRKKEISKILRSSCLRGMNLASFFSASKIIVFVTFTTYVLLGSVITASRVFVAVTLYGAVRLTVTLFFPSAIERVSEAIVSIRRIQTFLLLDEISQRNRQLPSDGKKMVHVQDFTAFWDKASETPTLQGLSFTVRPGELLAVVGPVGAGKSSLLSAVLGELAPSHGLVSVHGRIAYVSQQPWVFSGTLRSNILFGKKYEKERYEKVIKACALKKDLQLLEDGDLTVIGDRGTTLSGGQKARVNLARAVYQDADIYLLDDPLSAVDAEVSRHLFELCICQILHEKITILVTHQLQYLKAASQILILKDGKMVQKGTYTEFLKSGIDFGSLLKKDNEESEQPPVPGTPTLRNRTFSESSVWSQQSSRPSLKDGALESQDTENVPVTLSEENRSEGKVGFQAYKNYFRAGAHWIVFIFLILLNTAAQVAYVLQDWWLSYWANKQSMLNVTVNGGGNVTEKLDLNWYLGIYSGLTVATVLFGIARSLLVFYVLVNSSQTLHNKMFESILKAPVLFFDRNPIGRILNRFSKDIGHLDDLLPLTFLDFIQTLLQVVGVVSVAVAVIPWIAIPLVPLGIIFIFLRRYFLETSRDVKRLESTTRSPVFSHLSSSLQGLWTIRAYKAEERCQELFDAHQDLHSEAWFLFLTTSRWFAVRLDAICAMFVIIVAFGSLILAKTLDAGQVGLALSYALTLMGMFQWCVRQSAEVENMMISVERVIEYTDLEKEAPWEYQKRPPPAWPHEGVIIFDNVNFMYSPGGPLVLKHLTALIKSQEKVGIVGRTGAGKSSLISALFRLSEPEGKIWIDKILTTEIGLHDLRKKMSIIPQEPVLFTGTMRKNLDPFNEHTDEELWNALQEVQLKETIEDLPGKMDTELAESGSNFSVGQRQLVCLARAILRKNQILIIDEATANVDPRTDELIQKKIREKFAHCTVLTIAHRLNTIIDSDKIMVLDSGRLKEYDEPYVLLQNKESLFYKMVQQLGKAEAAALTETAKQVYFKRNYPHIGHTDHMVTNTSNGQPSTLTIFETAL
# Tests used:
# [1] = target: T1, ATP-binding cassette sub-family C member 4; assay: TP_TRANSPORTER: inhibition of E217betaG uptake (E217betaG: 1 uM, cGMP: 300 uM) in membrane vesicles from MRP4-expressing Sf9 cells; type: functional, cell membranes, Membrane vesicle; set-up: scale not given: the % may be the effect or the level left; conditions: sf9, 300 µM
# [2] = target: T1, ATP-binding cassette sub-family C member 4; assay: TP_TRANSPORTER: efflux in MRP4-expressing NIH3T3 cells; type: functional, cell-based; conditions: mouse
# [3] = target: T2, MRP4 (ABCC4); assay: TP_TRANSPORTER: inhibition of E217betaG uptake (E217betaG: 1 uM, MTX: 300 uM) in membrane vesicles from MRP4-expressing Sf9 cells; type: functional, cell membranes, Membrane vesicle; set-up: scale not given: the % may be the effect or the level left; conditions: probe E217betaG (estradiol 17beta-glucuronide), read-out: Activity
# [4] = substrate: C[C@]12CC[C@@H]3c4ccc(O)cc4CC[C@H]3[C@@H]1CC[C@@H]2O[C@@H]1O[C@H](C(=O)O)[C@@H](O)[C@H](O)[C@H]1O; assay: (§1) TP_TRANSPORTER: uptake in membrane vesicles from MRP4-expressing Sf9 cells; type: functional, cell membranes, Membrane vesicle
# [5] = substrate: [H][C@@]12COP(=O)(O)O[C@@]1([H])[C@@H](O)[C@H](n1cnc3c(=O)[nH]c(N)nc31)O2; assay: as §1; type: functional, cell membranes, Membrane vesicle
molecule,measurement,setting,value
Nc1nc2c(ncn2[C@@H]2O[C@@H]3COP(=O)(O)O[C@H]3[C@H]2O)c(=O)[nH]1,Activity,[1],16.2%
Sc1ncnc2nc[nH]c12 [MERCAPTOPURINE ANHYDROUS],Activity,[2],substrate [+]
CN(Cc1cnc2nc(N)nc(N)c2n1)c1ccc(C(=O)N[C@@H](CCC(=O)O)C(=O)O)cc1 [METHOTREXATE],activity at 300 µM,[3],40.3%
ATP-binding cassette sub-family C member 4 (Homo sapiens) (protein) MLPVYQEVKPNPLQDANLCSRVFFWWLNPLFKIGHKRRLEEDDMYSVLPEDRSQHLGEELQGFWDKEVLRAENDAQKPSLTRAIIKCYWKSYLVLGIFTLIEESAKVIQPIFLGKIINYFENYDPMDSVALNTAYAYATVLTFCTLILAILHHLYFYHVQCAGMRLRVAMCHMIYRKALRLSNMAMGKTTTGQIVNLLSNDVNKFDQVTVFLHFLWAGPLQAIAVTALLWMEIGISCLAGMAVLIILLPLQSCFGKLFSSLRSKTATFTDARIRTMNEVITGIRIIKMYAWEKSFSNLITNLRKKEISKILRSSCLRGMNLASFFSASKIIVFVTFTTYVLLGSVITASRVFVAVTLYGAVRLTVTLFFPSAIERVSEAIVSIRRIQTFLLLDEISQRNRQLPSDGKKMVHVQDFTAFWDKASETPTLQGLSFTVRPGELLAVVGPVGAGKSSLLSAVLGELAPSHGLVSVHGRIAYVSQQPWVFSGTLRSNILFGKKYEKERYEKVIKACALKKDLQLLEDGDLTVIGDRGTTLSGGQKARVNLARAVYQDADIYLLDDPLSAVDAEVSRHLFELCICQILHEKITILVTHQLQYLKAASQILILKDGKMVQKGTYTEFLKSGIDFGSLLKKDNEESEQPPVPGTPTLRNRTFSESSVWSQQSSRPSLKDGALESQDTENVPVTLSEENRSEGKVGFQAYKNYFRAGAHWIVFIFLILLNTAAQVAYVLQDWWLSYWANKQSMLNVTVNGGGNVTEKLDLNWYLGIYSGLTVATVLFGIARSLLVFYVLVNSSQTLHNKMFESILKAPVLFFDRNPIGRILNRFSKDIGHLDDLLPLTFLDFIQTLLQVVGVVSVAVAVIPWIAIPLVPLGIIFIFLRRYFLETSRDVKRLESTTRSPVFSHLSSSLQGLWTIRAYKAEERCQELFDAHQDLHSEAWFLFLTTSRWFAVRLDAICAMFVIIVAFGSLILAKTLDAGQVGLALSYALTLMGMFQWCVRQSAEVENMMISVERVIEYTDLEKEAPWEYQKRPPPAWPHEGVIIFDNVNFMYSPGGPLVLKHLTALIKSQEKVGIVGRTGAGKSSLISALFRLSEPEGKIWIDKILTTEIGLHDLRKKMSIIPQEPVLFTGTMRKNLDPFNEHTDEELWNALQEVQLKETIEDLPGKMDTELAESGSNFSVGQRQLVCLARAILRKNQILIIDEATANVDPRTDELIQKKIREKFAHCTVLTIAHRLNTIIDSDKIMVLDSGRLKEYDEPYVLLQNKESLFYKMVQQLGKAEAAALTETAKQVYFKRNYPHIGHTDHMVTNTSNGQPSTLTIFETAL,Km,[4],30.3 µM
same,Km,[5],9.69 µM
